Results reported in PubChem BioAssay AID248 (DTP/NCI, 2004).
Values joined by “and” are separate entries in the source; they are usually repeats but may differ in a detail not shown here. Identical values can stand only once. Inconclusive results and toxic doses are left out. Cut-off read from the data, not from the text of the source: active = T/C of 150% or more; inactive = T/C below 125%.

System: L1210 leukemia ip in BDF1 mice, survival T/C
Assay: NCI In Vivo Anticancer Drug Screen. Data for tumor model L1210 Leukemia (intraperitoneal) in B6D2F1 (BDF1) mice
Details: endpoint: mean survival time, higher = longer survival
In short: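 Transplantable tumor model; survival measured in treated vs vehicle control mice. Value = treated/control.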

[1] = dose: 12.5 mg/kg/injection, schedule: Q01DX009 (ip), vehicle: saline with Tween-80
[2] = dose: 25.0 mg/kg/injection, schedule: Q01DX009 (ip), vehicle: saline with Tween-80
[3] = dose: 50.0 mg/kg/injection, schedule: Q01DX009 (ip), vehicle: saline with Tween-80
[4] = dose: 100.0 mg/kg/injection, schedule: Q04DX003 (ip), vehicle: saline with Tween-80
[5] = dose: 100.0 mg/kg/injection, schedule: Q01DX009 (ip), vehicle: Klucel (hydroxypropylcellulose) (HPC)
[6] = dose: 200.0 mg/kg/injection, schedule: Q01DX009 (ip), vehicle: Klucel (hydroxypropylcellulose) (HPC)
[7] = dose: 400.0 mg/kg/injection, schedule: Q01DX009 (ip), vehicle: Klucel (hydroxypropylcellulose) (HPC)
[8] = dose: 12.5 mg/kg/injection, schedule: Q01DX009 (ip), vehicle: Klucel (hydroxypropylcellulose) (HPC)
[9] = dose: 25.0 mg/kg/injection, schedule: Q01DX009 (ip), vehicle: Klucel (hydroxypropylcellulose) (HPC)
[10] = dose: 50.0 mg/kg/injection, schedule: Q01DX009 (ip), vehicle: Klucel (hydroxypropylcellulose) (HPC)
[11] = dose: 100.0 mg/kg/injection, schedule: Q04DX003 (ip), vehicle: Klucel (hydroxypropylcellulose) (HPC)
[12] = dose: 200.0 mg/kg/injection, schedule: Q04DX003 (ip), vehicle: Klucel (hydroxypropylcellulose) (HPC)
[13] = dose: 400.0 mg/kg/injection, schedule: Q04DX003 (ip), vehicle: Klucel (hydroxypropylcellulose) (HPC)
[14] = dose: 200.0 mg/kg/injection, schedule: Q04DX003 (ip), vehicle: saline with Tween-80
[15] = dose: 400.0 mg/kg/injection, schedule: Q04DX003 (ip), vehicle: saline with Tween-80
[16] = dose: 200.0 mg/kg/injection, schedule: Q01DX001 (ip), vehicle: saline with Tween-80
[17] = dose: 100.0 mg/kg/injection, schedule: Q01DX001 (ip), vehicle: Klucel (hydroxypropylcellulose) (HPC)
[18] = dose: 200.0 mg/kg/injection, schedule: Q01DX001 (ip), vehicle: Klucel (hydroxypropylcellulose) (HPC)
[19] = dose: 400.0 mg/kg/injection, schedule: Q01DX001 (ip), vehicle: Klucel (hydroxypropylcellulose) (HPC)
[20] = dose: 100.0 mg/kg/injection, schedule: Q01DX001 (ip), vehicle: saline
[21] = dose: 200.0 mg/kg/injection, schedule: Q01DX001 (ip), vehicle: saline
[22] = dose: 400.0 mg/kg/injection, schedule: Q01DX001 (ip), vehicle: saline

Measured: T/C

COc1cccc2c(Cl)c(CCl)c(C)nc12
inactive: [1] 97 % of control | [2] 97 % of control | dose: 25.0 mg/kg/injection, schedule: Q04DX003 (ip), vehicle: saline with Tween-80 92 % of control | [3] 92 % of control | dose: 50.0 mg/kg/injection, schedule: Q04DX003 (ip), vehicle: saline with Tween-80 97 % of control | [4] 94 % of control and 96 % of control

CCOC(COc1ccccc1)c1ccccc1 (configuration not stated)
inactive: [5] 106 % of control | [6] 113 % of control | [7] 106 % of control

O=C(Cl)COc1cc(Cl)c(Cl)cc1Cl
inactive: dose: 100.0 mg/kg/injection, schedule: Q04DX002 (ip), vehicle: gum acacia 106 % of control | dose: 200.0 mg/kg/injection, schedule: Q04DX002 (ip), vehicle: gum acacia 110 % of control

C(=C\c1nc2ccccc2nc1/C=C/c1ccc2c(c1)OCO2)/c1ccc2c(c1)OCO2
inactive: [8] 95 % of control | [9] 92 % of control | [10] 100 % of control | [11] 102 % of control | [12] 96 % of control | [7] 86 % of control | [13] 95 % of control

CCOC(=O)CCN1CCOCC1
inactive: dose: 100.0 mg/kg/injection, schedule: Q01DX009 (ip), vehicle: saline 100 % of control | dose: 100.0 mg/kg/injection, schedule: Q04DX003 (ip), vehicle: saline 111 % of control | dose: 200.0 mg/kg/injection, schedule: Q01DX009 (ip), vehicle: saline 101 % of control | dose: 200.0 mg/kg/injection, schedule: Q04DX003 (ip), vehicle: saline 101 % of control | dose: 400.0 mg/kg/injection, schedule: Q01DX009 (ip), vehicle: saline 111 % of control | dose: 400.0 mg/kg/injection, schedule: Q04DX003 (ip), vehicle: saline 101 % of control

CCOC(=O)C(C=O)C(C(=O)OCC)C(OCC)OCC (configuration not stated)
inactive: [4] 111 % of control | [14] 104 % of control | [15] 109 % of control

CCN(CC)CCCOP(=O)(N(CC)CC)N(CCCl)CCCl (configuration not stated)
inactive: [16] 101 % of control

O=[N+]([O-])c1csc2ccccc12
inactive: [8] 97 % of control | [9] 90 % of control | [10] 90 % of control | [5] 105 % of control

CC(=O)Nc1ccc(/C=C/C(=O)c2ccc(C)cc2)cc1
inactive: [17] 101 % of control | [11] 104 % of control | [18] 100 % of control | [12] 103 % of control | [19] 103 % of control | [13] 94 % of control

Nc1nc(N)c(N=O)c(=O)[nH]1
inactive: [20] 105 % of control | [5] 99 % of control | [21] 95 % of control | [6] 100 % of control | [22] 94 % of control | [7] 97 % of control

CC1=C(Br)C(=O)C(Br)=C(Br)C1=O
inactive: dose: 100.0 mg/kg/injection, schedule: Q04DX003 (ip), vehicle: acetone 96 % of control

CC(C)CC1NC(=O)N(C)C1=O (configuration not stated)
inactive: dose: 75.0 mg/kg/injection, schedule: Q01DX001 (ip), vehicle: carboxymethylcellulose (CMC) 95 % of control | dose: 150.0 mg/kg/injection, schedule: Q01DX001 (ip), vehicle: carboxymethylcellulose (CMC) 100 % of control | dose: 300.0 mg/kg/injection, schedule: Q01DX001 (ip), vehicle: carboxymethylcellulose (CMC) 100 % of control

CNC(=O)Nc1c(C)cccc1Cl
inactive: [5] 94 % of control | [6] 95 % of control | [7] 105 % of control

CC(=O)c1cccc2c(C(C)=O)cccc12
inactive: dose: 50.0 mg/kg/injection, schedule: Q01DX001 (ip), vehicle: carboxymethylcellulose (CMC) 105 % of control | dose: 100.0 mg/kg/injection, schedule: Q01DX001 (ip), vehicle: carboxymethylcellulose (CMC) 103 % of control | dose: 200.0 mg/kg/injection, schedule: Q01DX001 (ip), vehicle: carboxymethylcellulose (CMC) 111 % of control | dose: 400.0 mg/kg/injection, schedule: Q01DX001 (ip), vehicle: carboxymethylcellulose (CMC) 103 % of control

O=[N+]([O-])c1ccc(NC(c2ccccc2)c2ccc3cccnc3c2O)cc1 (configuration not stated)
inactive: [20] 89 % of control | [21] 95 % of control | [22] 91 % of control

S=c1[nH]c2ccccc2s1.[Pb]
inactive: [17] 94 % of control | [18] 100 % of control | [19] 100 % of control

O=C1N(c2cc([N+](=O)[O-])ccc2F)C(=O)C(F)(F)C1(F)F
inactive: dose: 100.0 mg/kg/injection, schedule: Q01DX001 (ip), vehicle: saline with Tween-80 102 % of control | [16] 97 % of control

O=S(=O)(O)c1ccc(Cl)cc1
inactive: [4] 96 % of control | [14] 104 % of control | [15] 106 % of control

C[Si](C)(c1ccc(C(=O)Cl)cc1)c1ccc(C(=O)Cl)cc1
inactive: dose: 100.0 mg/kg/injection, schedule: Q04DX002 (ip), vehicle: saline with Tween-80 96 % of control | dose: 200.0 mg/kg/injection, schedule: Q04DX002 (ip), vehicle: saline with Tween-80 96 % of control | dose: 400.0 mg/kg/injection, schedule: Q04DX002 (ip), vehicle: saline with Tween-80 100 % of control

CC(=O)N(C)c1ccc(NC(=O)Nc2cccc(F)c2)cc1
inactive: [1] 104 % of control | [2] 105 % of control | [3] 96 % of control
